# Patent publication US6436948B1, “Method for the treatment of psoriasis and genital warts” (priority 1995, dated 2002)
# How the values were obtained:
# [1] = tested on: KB nasopharyngeal carcinoma cell line; assay: In vitro cytotoxicity, methylene blue assay / cell count: KB; type: cell-based; settings: three generations, mean ± standard deviation of five experiments, read-out: ID50 (the source's name)
# [2] = tested on: DU-145 prostate carcinoma line; assay: In vitro cytotoxicity, methylene blue assay / cell count: DU-145; type: cell-based; settings: Homo sapiens, read-out: ID50 (the source's name)
# [3] = tested on: PC-3 prostate carcinoma line; assay: In vitro cytotoxicity, methylene blue assay / cell count: PC-3; type: cell-based; settings: three generations, mean ± standard deviation of five experiments, read-out: ID50 (the source's name)
# HepG2 cells = assay: In vitro cytotoxicity, methylene blue assay / cell count: HepG2; type: cell-based; settings: Homo sapiens, three generations, mean ± standard deviation of five experiments, read-out: ID50 (the source's name)
# CEM cells = assay: In vitro cytotoxicity, methylene blue assay / cell count: CEM; type: cell-based; settings: Homo sapiens, CCRF-CEM, three generations, mean ± standard deviation of five experiments, read-out: ID50 (the source's name)
# HepG2 tumors = assay: HepG2 xenograft in NCr nude mice; type: in vivo, human; settings: 25 mg/kg twice a day on days 0 through 4, NCr nude mice
# Procedure: (§1) FIG. 5 is a graph of the inhibition of human tumor growth by […]. Three to six week old NCr nude mice were inoculated subcutaneously in each flank with 2×10^6 HepG2 or DU-145 cells. Treatment was started when the tumors were in an advanced stage of growth. Drugs were administered twice a day on days 0 through 4 and tumor sizes were measured on the indicated days. […] Each data point represents the means±SD of 10 tumors in graph A and six tumors in graph B.
# (§2) Three to six-week-old NCr nude mice (Taconic Immunodeficient Mice and Rats) were inoculated s.c. in each flank with 2×10^6HepG2 or DU-145 cells and tumors were allowed to grow. Treatment was started when the tumors were 100-250mg as determined by caliper measurement and calculated according to the formula:
# (§3) Tumor Weight(mg)=length(mm)×width(mm^2)÷2
# (§4) Drugs were given at the indicated doses on days 0 through 4 and tumor sizes were measured every several days. The tumor growth curves were generated as described in Bell, et al., Cancer(phila.) 36:2437-2440 (1975), and are illustrated in FIGS. 5(a) and 5(b).
# DU-145 tumors = assay: DU-145 xenograft in NCr nude mice; type: in vivo, human; settings: 25 mg/kg twice a day on days 0 through 4, NCr nude mice
# Procedure: as §1, §2, §3, §4
# NCr nude mice = type: in vivo; settings: mouse, in vivo, 25 mg/kg
# Procedure: as §4
# Toxicity was evaluated by changes in body weight.
smiles,measurement,setting,value
"Nc1ccn([C@@H]2O[C@H](CO)[C@@H](O)[C@@H]2O)c(=O)n1 [AraC, Cytosine arabinoside]",IC50,[1],152 ± 10 nM
same,IC50,[2],170 ± 35 nM
same,IC50,[3],200 ± 78 nM
same,IC50,HepG2 cells,125 ± 13 nM
same,IC50,CEM cells,30 ± 10 nM
same,Effect on HepG2 tumors in words,HepG2 tumors,ineffective
same,Effect on HepG2 tumors in words,HepG2 tumors; listed as arac,inactive
same,Effect on DU-145 tumors in words,DU-145 tumors,ineffective
same,Toxicity as indicated by weight loss of the animals,NCr nude mice,equally toxic
